Assay results as given in patent US10092648B2, “Selective glucagon-like-peptide-2 (GLP-2) analogues” (Zealand Pharma A/S, priority 2006, dated 2018).
Like-named read-outs stand apart in the source and are kept apart here.

Key:
male C57BL mice [1] = test: In vivo stimulation of stomach growth, 200 nmol/kg (Example 12); settings: for Sensitivity index Stomach/Co: ratio Stomach-BW / Colon-BW; for Stomach-BW, compared to 1559 in %: stomach weight relative to body weight, relative to ZP1559
Method in brief: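 Mice (n=6-10/group) received 200 nmol/kg s.c. once daily for 3 days, with PBS pH 7.4 vehicle and an equimolar GLP-2 comparator. Stomach/colon sensitivity index relative to GLP-2 was calculated, with ≥1.05 deemed stomach-selective.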

male C57BL mice [2] = test: In vivo stimulation of intestinal growth, 800 nmol/kg (Example 10); design: key to Small intestine-colon sensitivity index: (SI/Colon) of compound divided by (SI/Colon) of reference GLP-2; settings: 800 nmol/kg s.c. once daily for 3 days; for Sensitivity index Si/Colon / Sensitivity index Stomach/Co: relative to 1559; for Colon: colon mass relative to BW, % vs. [Gly2]GLP-2; for SI (% vs. [Gly2]GLP-2: small intestine mass relative to BW, [Gly2]GLP-2 = 100%
Text: Individual groups (n=6-10) of mice were given 800 nmol/kg of each compound, s.c, once daily for three consecutive days. For comparison purposes other groups of animals were given either an equimolar dose of [[…]]GLP-2 (ZP1559) or vehicle (phosphate buffered saline, pH 7.4) in the same dosing regimen Twenty-four hours after the last dose of compound had been given the mice were sacrificed and the small intestine (from the pylorus to the cecum) and the colon (intestine distal to cecum) was emptied and weighed. To correct for slight difference in body weight (BW), the organ mass of the small intestine (SI) and colon were expressed relative to BW. The non-selective reference compound [[…]]GLP-2 has been reported to stimulate gastrointestinal growth in both esophagus, stomach, small intestine and colon and to evaluate differences in growth pattern induced by compounds, the small intestine-colon sensitivity index of compound X was calculated as: […]

male C57BL mice [3] = test: In vivo stimulation of intestinal growth, 200 nmol/kg (Example 11); settings: for Colon-BW, compared to 1559 in %: colon weight relative to body weight; for Colon-BW, compared to 1559 in % / SI-BW, compared to 1559 in %: relative to ZP1559; for Sensitivity index Si/Co: ratio SI-BW / Colon-BW; for SI-BW, compared to 1559 in %: small intestine weight relative to body weight
Method in brief: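 Mice (n=6-10 per group) dosed s.c. at 200 nmol/kg once daily for three days; controls received equimolar [[MUT]]GLP-2 or PBS pH 7.4 vehicle.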

hGLP-2 receptor = target: T1, hGLP-2 receptor (Homo sapiens, UniProt O95838); test: In vitro screening for agonism on the GLP-2 receptor recombinantly expressed in BHK-21 cells (CRE-luciferase reporter); type: cell-based
T1 construct: expressed in transfected cells; host or cells: BHK-21 (C13) cells, transient transfection with Lipofectamine 2000
T1 sequence (O95838 1-553): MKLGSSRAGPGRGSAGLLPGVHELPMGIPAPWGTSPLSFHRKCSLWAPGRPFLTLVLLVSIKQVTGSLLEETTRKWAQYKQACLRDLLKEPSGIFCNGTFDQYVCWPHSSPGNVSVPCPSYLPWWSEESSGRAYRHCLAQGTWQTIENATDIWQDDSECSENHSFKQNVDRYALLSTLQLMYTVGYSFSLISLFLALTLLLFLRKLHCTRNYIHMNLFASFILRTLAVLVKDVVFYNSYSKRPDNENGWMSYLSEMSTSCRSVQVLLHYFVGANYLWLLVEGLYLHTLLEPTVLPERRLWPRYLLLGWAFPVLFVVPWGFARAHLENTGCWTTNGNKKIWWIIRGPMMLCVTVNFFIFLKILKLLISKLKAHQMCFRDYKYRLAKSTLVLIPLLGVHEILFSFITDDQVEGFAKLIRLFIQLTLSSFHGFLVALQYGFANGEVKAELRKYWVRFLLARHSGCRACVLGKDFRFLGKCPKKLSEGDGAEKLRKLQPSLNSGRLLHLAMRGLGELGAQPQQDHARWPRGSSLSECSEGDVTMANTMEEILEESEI
Procedure: The screening was done using BHK21 cells transiently transfected with GLP-2 receptor and the CRE-luciferase reporter gene construct. Dose-response curves and EC50 values were determined using seven concentrations from 10 fM to 10 nM and triplicate points for each concentration. Control peptide was used on all test plates. BHK-21 cells are seeded in 10 cm TC-Petri dishes and grown to 70-80% confluency. Subsequently, medium is changed to serum-free transfection medium. DNA (7.5 μg hGLP-2 receptor vector and 7.5 μg CRE-luciferase vector) and Lipofectamine 2000 are diluted in OptiMEM, combined, and added to the cells after 20-30 min. Cells are incubated in the incubator at 37° C., 5% CO2 for 4 hr, trypsinized, and reseeded at 35,000 cells per well in 96-well plates. Cells are incubated overnight in full growth medium in order to allow expression of the transgenes. […] Baseline activity is controled with stimulation buffer alone. These solutions are pre-warmed to 37° C. for 30 min. Cells are rinsed with pre-warmed (37° C.) stimulation buffer, and incubated with 100 μl of the pre-warmed peptide dilutions and control for 5 hr at 37° C., 5% CO2. The LucLite enzyme substrate/lysis buffer is prepared shortly before the end of the incubation. 100 μl LucLite substrate are added to each well, and light emission is counted on a suitable counter (e.g. Wallac VictorII). EC50 values are derived from the raw data by fitting with a four parameter logistic equation (Microcal Origin 5.0 or GraphPad 4).

[4] = DPP IV degradation and renal clearance; Tavares et al. 2000; cited from earlier work

EC50 (hGLP-2 receptor; BHK21 cells transiently transfected with GLP-2 receptor and CRE-luciferase, 10 fM to 10 nM, read-out: pEC50 (converted)) | Substance | Sensitivity index Stomach/Co (male C57BL mice [1]) | Stomach-BW, compared to 1559 in % (male C57BL mice [1]) | Colon-BW, compared to 1559 in % (male C57BL mice [2]) | Preferential stimulation of epithelial growth in the small intestine (summary) (male C57BL mice [2]) | SI-BW, compared to 1559 in % (male C57BL mice [2]) | Sto-BW, compared to 1559 in % (male C57BL mice [2]) | Sensitivity index Si/Colon (male C57BL mice [2]) | Sensitivity index Stomach/Co (male C57BL mice [2]) | Colon (male C57BL mice [2]) | SI (% vs. [Gly2]GLP-2 (male C57BL mice [2]) | Colon-BW, compared to 1559 in % (male C57BL mice [3]) | Sensitivity index Si/Co (male C57BL mice [3]) | SI-BW, compared to 1559 in % (male C57BL mice [3]) | Small intestine-colon sensitivity index (male C57BL mice [2]; (SI/Colon)x/(SI/Colon)[Gly2]GLP-2) | EC50 (hGLP-2 receptor) | half life [4]
5.37 pM | H-HGEGSFSDELATILESLAAADFISWLIATKITD-NH2 [ZP2272] | 0.92 | 96% | 104.7% | preferentially stimulating epithelial growth in the small intestine | 118.1% | 96% | 1.13 | 0.92 | 105 ± 6% | 118 ± 2% | 104.7% | 1.13 | 118.1% | – | – | –
– | H-HGEGSFSDELATILEALAASDFISWLISTKITD-NH2 [ZP2268] | 0.78 | 87.4% | 112.5% | preferentially stimulating epithelial growth in the small intestine | 123.6% | 87.4% | 1.10 | 0.78 | 112 ± 4 % | 124 ± 3 % | 112.5% | 1.10 | 123.6% | 1.10 ± 0.03 | 6.17 pM | –
– | H-His-Ala-Asp-Gly-Ser-Phe-Ser-Asp-Glu-Met-Asn-Thr-Ile-Leu-Asp-Asn-Leu-Ala-Ala-Arg-Asp-Phe-Ile-Asn-Trp-Leu-Ile-Gln-Thr-Lys-Ile-Thr-Asp-OH [GLP-2(1-33)] | – | – | – | – | – | – | – | – | – | – | – | – | – | – | – | about 7 minutes
